The subject of assay [1] is HEK293sieSTAT3(Y640F). Description: drug sensitivity score (DSS), cytotoxicity CellTox Green (DSS (dimensionless)); higher = more cytotoxic; extreme values may be limits of the assay. As to conditions: 72 h; STAT3 variant: Y640F (constitutively active). In short, it runs like this: (§1)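 A drug sensitivity score, based on the area of the dose-response curve, was calculated in Breeze after normalising values to negative and positive control wells. It came from HEK293 cells carrying a STAT3-dependent luciferase reporter and overexpressing wild-type or mutant STAT3, plated at 20 μl of 100,000 cells/ml onto compounds acoustically pre-plated at 5 concentrations in 10-fold dilutions in 384-well plates. Following 72 hours at 37°C and 5% CO2, CellTox Green fluorescence (485/520 nm) and then CellTiter-Glo luminescence were read on a PHERAstar FS.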

For assay [2], the system named is HEK293sieSTAT3(wt). The assay is described as above. Conditions: 72 h; STAT3 variant: wild type. In short, it runs like this:
as §1

Assay [3] has as its system HEK293sieSTAT3(Y640F). Put plainly: drug sensitivity score (DSS), viability CellTiter-Glo (DSS (dimensionless)); higher = more growth inhibition; extreme values may be limits of the assay. As to conditions: 72 h; STAT3 variant: Y640F (constitutively active). In outline: as §1
(Cellular ATP, detected with luciferase, serves as a proxy for viable cell number.)

Assay [4] deals with HEK293sieSTAT3(wt). The description is as above. As to conditions: 72 h; STAT3 variant: wild type. In short, it runs like this:
as §1

Structures are written as SMILES.

Consider `Cc1[nH]c(/C=C2\C(=O)Nc3ccccc32)c(C)c1CCC(=O)O` [Orantinib] (top concentration tested 10000 nM), for which the drug sensitivity score came out at 18.4 in assay [1], 21.6 in assay [2], 1.85 in assay [3] and 1.33 in assay [4].
The corresponding values for `CNC(=O)c1ccc2cc([C@@]3(O)CCn4cncc43)ccc2c1` [Orteronel] (top concentration tested 10000 nM) are 0, 0, 0 and 0.
The matching figures for `C=CC(=O)Nc1cc(Nc2nccc(-c3cn(C)c4ccccc34)n2)c(OC)cc1N(C)CCN(C)C` [Osimertinib] (top concentration tested 2500 nM): 0.47, 6.55, 6.46 and 8.88.
The corresponding values for `O=C(O)C(=O)O.[NH-][C@@H]1CCCC[C@H]1[NH-].[Pt+2]` [Oxaliplatin] (top concentration tested 100000 nM) are 5.26, 12, 16.9 and 19.3.
Consider `C=CCc1cccc(/C=N/NC(=O)CN2CCN(Cc3ccccc3)CC2)c1O` [PAC-1] (top concentration tested 10000 nM), for which the drug sensitivity score came out at 0 in assay [1], 3.52 in assay [2], 4.7 in assay [3] and 7.56 in assay [4].
The corresponding values for `O=C(Nc1cccnc1)N1CCC(Cc2cccc(Oc3ccc(C(F)(F)F)cn3)c2)CC1` [PF-3845] (top concentration tested 10000 nM) are 0, 0, 1.51 and 3.05.
The matching figures for `COc1ccccc1S(=O)(=O)Nc1ccc2c(c1)CN(C)C(=O)N2` [PFI-1] (top concentration tested 10000 nM): 0.33, 6.8, 5.5 and 5.96.
The corresponding values for `CN1CCN(c2cc(C(=O)Nc3ccc4c(c3)-c3c(c(C(N)=O)nn3-c3ccc(F)cc3)CC4)c(Cl)cn2)CC1` [PHA 408] (top concentration tested 10000 nM) are 5.61, 8.63, 9.12 and 8.88.
On to `CCn1nnc2c(N3CCOCC3)nc(-c3ccc(NC(=O)Nc4ccc(C(=O)N5CCN(C)CC5)cc4)cc3)nc21` [PKI-402] (top concentration tested 2500 nM), for which the drug sensitivity score in assay [1] amounted to 0; in assay [2] it was 5.48; in assay [3] it was 16.7; in assay [4], 16.8.
The corresponding values for `O=C(Nc1cc(Cl)cc2c1[nH]c1cnccc12)c1cccnc1` [PS-1145] (top concentration tested 25000 nM) are 1.94, 0.08, 0 and 3.94.
The corresponding values for `COc1cc(Br)c(Nc2nc(-c3c(C)nc4ncccn34)cs2)c(Br)c1` [PTC-209] (top concentration tested 10000 nM) are 0.1, 2.2, 16 and 15.7.
The matching figures for `CC(=O)O[C@H]1C(=O)[C@@]2(C)[C@H]([C@H](OC(=O)c3ccccc3)[C@]3(O)C[C@H](OC(=O)[C@H](O)[C@@H](NC(=O)c4ccccc4)c4ccccc4)C(C)=C1C3(C)C)[C@]1(OC(C)=O)CO[C@@H]1C[C@@H]2O` [Paclitaxel] (top concentration tested 1000 nM): 0.91, 16.8, 16.4 and 23.2.
Regarding `C1=N/C2=N/c3ccc(OCCN4CCCC4)c(c3)COC/C=C/COCc3cccc(c3)C(=C1)N2` [Pacritinib] (top concentration tested 10000 nM), the drug sensitivity score in assay [1] was found to be 6.22; in assay [2], 10.8; in assay [3] it was 12.1; in assay [4], 11.1.
The matching figures for `CC(=O)c1c(C)c2cnc(Nc3ccc(N4CCNCC4)cn3)nc2n(C2CCCC2)c1=O` [Palbociclib] (top concentration tested 10000 nM): 1.93, 7.3, 5.65 and 6.99.
`COc1ccc(COc2cc3oc(=O)c4cc(C(C)O)ccc4c3cc2OC)cc1` (stereo not drawn) [Palomid-529] (top concentration tested 10000 nM): the drug sensitivity score in assay [1] turned out to be 0; in assay [2], 3.06; in assay [3] it was 2.18; in assay [4], 2.21.
The matching figures for `Cc1[nH]c2ccccc2c1CCNCc1ccc(/C=C/C(=O)NO)cc1` [Panobinostat] (top concentration tested 1000 nM): 11.6, 17.8, 20.6 and 20.4.
In the case of `C/C(=C\c1csc(C)n1)[C@@H]1C[C@@H]2O[C@]2(C)CCC[C@H](C)[C@H](O)[C@@H](C)C(=O)C(C)(C)[C@@H](O)CC(=O)O1` [Patupilone] (top concentration tested 1000 nM), the drug sensitivity score is 4.17 in assay [1], 15.5 in assay [2], 19.1 in assay [3] and 21.9 in assay [4].
The matching figures for `Cc1ccc(Nc2nccc(N(C)c3ccc4c(C)n(C)nc4c3)n2)cc1S(N)(=O)=O` [Pazopanib] (top concentration tested 10000 nM): 0, 0, 0.04 and 0.89.
The matching figures for `CCOc1cc2ncc(C#N)c(Nc3ccc(F)c(Cl)c3)c2cc1NC(=O)/C=C/CN(C)C` [Pelitinib] (top concentration tested 2500 nM): 1.79, 3.88, 6.05 and 9.21.
The corresponding values for `Nc1nc2[nH]cc(CCc3ccc(C(=O)N[C@@H](CCC(=O)O)C(=O)O)cc3)c2c(=O)[nH]1` [Pemetrexed] (top concentration tested 10000 nM) are 0, 2.93, 12.9 and 13.3.
As for `OC[C@H]1O[C@@H](n2cnc3c2N=CNC[C@H]3O)C[C@@H]1O` [Pentostatin] (top concentration tested 10000 nM), the drug sensitivity score in assay [1] was 0; in assay [2], 0; in assay [3], 0.02; in assay [4] it was 1.4.
For the compound `CCCCCCCCCCCCCCCCCCOP(=O)([O-])OC1CC[N+](C)(C)CC1` [Perifosine] (top concentration tested 2500 nM), the drug sensitivity score amounted to 0 in assay [1], 0.08 in assay [2], 5.21 in assay [3] and 2.19 in assay [4].
